{"source": "patent US20190343953A1", "about": "“ANTI-CANCER TREATMENTS WITH AN ANTI-MUC1 ANTIBODY AND AN ERBB INHIBITOR” (Glycotope GmbH, priority 2017, published 2019)", "test_system": "cancer cells", "test": "Cytotoxicity assay of SeeloMab (PankoMab-ADC), statements for the cancer cells in general", "format": "cell-based, human", "conditions": "pretreated for 3 days vs non-pretreated", "protocol": "The cytotoxic potential of a TA-MUC1 targeting antibody drug conjugate (ADC) was investigated using SeeloMab, the ADC format of PankoMab with a microtubule inhibitor as toxin. Therefore, cells were pre-incubated for 3 days with an optimum concentration of EGFR inhibitor. […] After 3 days the antigen expression was confirmed by flow cytometry and cells were seeded at equal cell density (5000 cells/well) into the wells of a microtiter plate. Cells were incubated with different concentrations of SeeloMab, an isotype matched control ADC and unconjugated PankoMab served as negative control. After 4 days viability of the cells was measured using Celltiter-Glo Luminescent Cell Viability Assay (Promega) and percent proliferation was calculated relative to medium control.", "data": [{"smiles": "C#Cc1cccc(Nc2ncnc3cc(OCCOC)c(OCCOC)cc23)c1", "note": "[Erlotinib]", "values": [{"measurement": "reduction of proliferation by anti-TA-MUC1 ADC when cancer cells were pretreated with EGFR inhibitor", "value": "significantly stronger"}]}]}
